Reference: US20260191998A1, “INDOLE PHTHALOCYANINE COMPOUND, PREPARATION METHOD THEREFOR, AND USE THEREOF IN TUMOR DIAGNOSIS IMAGING” (JIANGSU YAHONG MEDITECH CO., LTD., priority 2022, published 2026)
Structures can show the parent of a compound that is named as a salt.

Experiment: UV-VIS absorption spectra (optical property test)
Assay type: physicochemical
Conditions: 10 μM, DMSO solution; for Absorbance × 10^4: at maximum absorption peak
Protocol: The UV-VIS absorption spectra of the compounds (10 μM, DMSO solution) were detected using Shimadzu UV2600 spectrophotometer, and the maximum absorption peak and absorbance of each compound were obtained.

Row | Compound | Absorbance × 10^4 | Absorption peak [nm]
1 | C[N+]1=C(/C=C/C2=C(Cl)C(=C/C=C3/N(CCOCCOCCOCc4ccccc4)c4ccccc4C3(C)C)/CC2)C(C)(C)c2ccccc21 [Example 55, 2-((E)-2-((E)-3-(2-((E)-1-(2-(2-(2-(benzyloxy)ethoxy)ethoxy)ethyl)-3,3-dimethylindolin-2-ylidene)ethenyl)-2-chlorocyclopent-1-en-1-yl)ethenyl)-1,3,3-trimethyl-3H-indol-1-ium Formate] | 3.48 | 
2 | CC1(C)C(/C=C/C2=C(Cl)C(=C/C=C3/N(CCCCCC(=O)Nc4ccccc4)c4ccccc4C3(C)C)/CCC2)=[N+](CCCCCC(=O)O)c2ccccc21 [Example 27A, 1-(5-carboxypentyl)-2-((E)-2-((E)-2-chloro-3-(2-((E)-3,3-dimethyl-1-(6-oxo-6-(phenylamino)hexyl)indolin-2-ylidene)ethenyl)cyclohex-1-en-1-yl)ethenyl)-3,3-dimethyl-3H-indol-1-ium 2,2,2-trifluoroacetate] | 2.29 | 796.5
3 | CC[N+]1=C(/C=C/C2=C(Oc3ccccc3)C(=C/C=C3/N(CCCCCC(=O)Oc4ccccc4)c4ccccc4C3(C)C)/CCC2)C(C)(C)c2ccccc21 [Example 12, 2-((E)-2-((E)-3-(2-((E)-3,3-dimethyl-1-(6-oxo-6-phenoxyhexyl)indolin-2-ylidene)ethenyl)-2-phenoxycyclohex-1-en-1-yl)ethenyl)-1-ethyl-3,3-dimethyl-3H-indol-1-ium Chloride] | 2.07 | 781.5
4 | 5-carboxy-2-((E)-2-((E)-2-chloro-3-(2-((E)-3,3-dimethyl-1-(6-oxo-6-phenoxyhexyl)indolin-2-ylidene)ethenyl)cyclohex-1-en-1-yl)ethenyl)-1-ethyl-3,3-dimethyl-3H-indol-1-ium 2,2,2-trifluoroacetate [Example 118] | 1.73 | 
5 | CC[N+]1=C(/C=C/C2=C(Cl)C(=C/C=C3/N(CCCCCC(=O)Oc4ccccc4)c4ccccc4C3(C)C)/CCC2)C(C)(C)c2cc(S(C)(=O)=O)ccc21 [Example 40, 2-((E)-2-((E)-2-chloro-3-(2-((E)-3,3-dimethyl-1-(6-oxo-6-phenoxyhexyl)indolin-2-ylidene)ethenyl)cyclohex-1-en-1-yl)ethenyl)-1-ethyl-3,3-dimethyl-5-(methylsulfonyl)-3H-indol-1-ium Chloride] | 0.93 | 
6 | CC[N+]1=C(/C=C/C2=C(Sc3ccccc3)C(=C/C=C3/N(CCCCCC(=O)Oc4ccccc4)c4ccccc4C3(C)C)/CC2)C(C)(C)c2ccccc21 [Example 101] | 1.971 | 836.5
7 | CN(C)C1CC(/C=C/C2=[N+](C)c3ccccc3C2(C)C)=C(Cl)C(=C/C=C2/N(CCCCCC(=O)Oc3ccccc3)c3ccccc3C2(C)C)/C1 (centres unmarked) [Example 50, 2-((E)-2-((E)-2-chloro-3-(2-((E)-3,3-dimethyl-1-(6-oxo-6-phenoxyhexyl)indolin-2-ylidene)ethenyl)-5-(dimethylamino)cyclohex-1-en-1-yl)ethenyl)-1,3,3-trimethyl-3H-indol-1-ium Formate] | 1.97 | 
8 | CN1C(=O)/C(=C\C2=C(Cl)C(=C/C=C3/N(CCCCC(=O)Oc4ccccc4)c4ccccc4C3(C)C)/C[N+](C)(C)C2)c2ccccc21 [Example 38] | 0.364 | 584
9 | 5-carboxy-2-((E)-2-((E)-2-chloro-3-(2-((E)-3,3-dimethyl-1-(6-oxo-6-phenoxyhexyl)indolin-2-ylidene)ethenyl)cyclohex-1-en-1-yl)ethenyl)-1,3,3-trimethyl-3H-indol-1-ium 2,2,2-trifluoroacetate [Example 120] | 1.73 | 
10 | CC[N+]1=C(/C=C/C2=C(Cl)C(=C/C=C3/N(Cc4ccc(C(=O)Oc5ccccc5)cc4)c4ccc5ccccc5c4C3(C)C)/CCC2)C(C)(C)c2c1ccc1ccccc21 [Example 3] | 1.88 | 835
11 | CC[N+]1=C(/C=C/C2=C(Cl)C(=C/C=C3/N(CCCCCC(=O)Oc4ccccc4)c4ccccc4C3(C)C)/C[N+](C)(C)C2)C(C)(C)c2ccccc21 [Example 16, 2-((E)-2-((E)-4-chloro-5-(2-((E)-3,3-dimethyl-1-(6-oxo-6-phenoxyhexyl)indolin-2-ylidene)ethenyl)-1,1-dimethyl-1,2,5,6-tetrahydropyridin-1-ium-3-yl)ethenyl)-1-ethyl-3,3-dimethyl-3H-indol-1-ium Dichloride] | 1.71 | 766
12 | CC1(C)C(/C=C/C2=C(Cl)C(=C/C=C3/N(CCCCCC(=O)O)c4ccccc4C3(C)C)/CCC2)=[N+](CCCCCC(=O)O)c2ccccc21 [Example 85B] | 1.397 | 796.5
13 | CC[N+]1=C(/C=C/C2=C(Cl)C(=C/C=C3/N(CCOCCCC(=O)Oc4ccccc4)c4ccccc4C3(C)C)/CCC2)C(C)(C)c2ccccc21 [Example 36, 2-((E)-2-((E)-2-chloro-3-(2-((E)-3,3-dimethyl-1-(2-(4-oxo-4-phenoxybutoxy)ethyl)indolin-2-ylidene)ethenyl)cyclohex-1-en-1-yl)ethenyl)-1-ethyl-3,3-dimethyl-3H-indol-1-ium 2,2,2-trifluoroacetate] | 3.368 | 795.5
14 | CC1(C)C(/C=C/C2=C(Cl)C(=C/C=C3/N(CCCCCC(=O)Oc4ccccc4)c4ccccc4C3(C)C)/CCC2)=[N+](CCO)c2ccccc21 [Example 48, 2-((E)-2-((E)-2-chloro-3-(2-((E)-3,3-dimethyl-1-(6-oxo-6-phenoxyhexyl)indolin-2-ylidene)ethenyl)cyclohex-1-en-1-yl)ethenyl)-1-(2-hydroxyethyl)-3,3-dimethyl-3H-indol-1-ium Formate] | 2.02 | 
15 | C[n+]1cccc2c1N=C(/C=C/C1=C(Cl)C(=C/C=C3/N(CCCCCC(=O)O)c4ccccc4C3(C)C)/CCC1)C2(C)C [Example 64, 2-((E)-2-((E)-3-(2-((E)-1-(5-carboxypentyl)-3,3-dimethylindolin-2-ylidene)ethenyl)-2-chlorocyclohex-1-en-1-yl)ethenyl)-3,3,7-trimethyl-3H-pyrrolo[2,3-b]pyridin-7-ium Chloride] | 0.5 | 
16 | CC[N+]1=C(/C=C/C2=C(Cl)C(=C/C=C3/N(CCCCCC(=O)NCCCCCNC(=O)CCCCCN4/C(=C/C=C5\CCCC(/C=C/C6=[N+](CC)c7ccccc7C6(C)C)=C5Cl)C(C)(C)c5ccccc54)c4ccccc4C3(C)C)/CCC2)C(C)(C)c2ccccc21 [Example 77, 2,2′-((1E,1′E)-((3E,3′E)-(((2E,2′E)-((pentane-1,5-diylbis(azanediyl))bis(6-oxohexane-6,1-diyl))bis(3,3-dimethylindolin-1-yl-2-ylidene))bis(ethane-2,1-diylidene))bis(2-chlorocyclohex-1-en-1-yl-3-ylidene))bis(ethene-2,1-diyl))bis(1-ethyl-3,3-dimethyl-3H-indol-1-ium) Chloride] | 4.344 | 794.5
17 | C[n+]1cccc2c1N=C(/C=C/C1=C(Cl)C(=C/C=C3/N(CCCCCC(=O)Oc4ccccc4)c4ccccc4C3(C)C)/CCC1)C2(C)C [Example 53, 2-((E)-2-((E)-2-chloro-3-(2-((E)-3,3-dimethyl-1-(6-oxo-6-phenoxyhexyl)indolin-2-ylidene)ethenyl)cyclohex-1-en-1-yl)ethenyl)-3,3,7-trimethyl-3H-pyrrolo[2,3-b]pyridin-7-ium 2,2,2-trifluoroacetate] | 0.6 | 

More lines, main results first:

Row | Absorbance × 10^4 | Compound | Absorption peak [nm]
18 | 1.36 | CC[N+]1=C(/C=C/C2=C(Cl)C(=C/C=C3/N(CCOCCC(=O)Oc4ccccc4)c4ccccc4C3(C)C)/CCC2)C(C)(C)c2cc(C(=O)O)ccc21 [Example 117, 5-carboxy-2-((E)-2-((E)-2-chloro-3-(2-((E)-3,3-dimethyl-1-(2-(3-oxo-3-phenoxypropoxy)ethyl)indolin-2-ylidene)ethenyl)cyclohex-1-en-1-yl)ethenyl)-1-ethyl-3,3-dimethyl-3H-indol-1-ium 2,2,2-trifluoroacetate] | 
19 | 1.86 | CC1(C)C(/C=C/C2=C(Cl)C(=C/C=C3/N(CCCCCC(=O)Oc4ccccc4)c4ccccc4C3(C)C)/CC2)=[N+](CCCCCC(=O)O)c2ccccc21.[Cl-] [Example 89] | 
20 | 2.57 | CC[N+]1=C(/C=C/C2=C(Br)C(=C/C=C3/N(CCCCCC(=O)Oc4ccccc4)c4ccccc4C3(C)C)/CCC2)C(C)(C)c2ccccc21 [Example 54, 2-((E)-2-((E)-2-bromo-3-(2-((E)-3,3-dimethyl-1-(6-oxo-6-phenoxyhexyl)indolin-2-ylidene)ethenyl)cyclohex-1-en-1-yl)ethenyl)-1-ethyl-3,3-dimethyl-3H-indol-1-ium Formate] | 
21 | 0.911 | CC[N+]1=C(/C=C/C2=C(Oc3ccc(S(=O)(=O)O)cc3)C(=C/C=C3/N(CCCCCC(=O)Oc4ccccc4)c4ccccc4C3(C)C)/C[N+](C)(C)C2)C(C)(C)c2ccccc21 [Example 112] | 756
22 | 3.686 | CC[N+]1=C(/C=C/C2=C(Cl)C(=C/C=C3/N(CCCCC(=O)NCCCNC(=O)CCCCN4/C(=C/C=C5\CCCC(/C=C/C6=[N+](CC)c7ccccc7C6(C)C)=C5Cl)C(C)(C)c5ccccc54)c4ccccc4C3(C)C)/CCC2)C(C)(C)c2ccccc21.[Cl-].[Cl-] [Example 82] | 793.5
23 | 1.52 | C[N+]1=C(/C=C/C2=C(Cl)C(=C/C=C3/N(CCCCCC(=O)O)c4ccccc4C3(C)C)/CCC2)C(C)(C)c2cc(C(=O)O)ccc21 [Example 119, 5-carboxy-2-((E)-2-((E)-3-(2-((E)-1-(5-carboxypentyl)-3,3-dimethylindolin-2-ylidene)ethenyl)-2-chlorocyclohex-1-en-1-yl)ethenyl)-1,3,3-trimethyl-3H-indol-1-ium 2,2,2-trifluoroacetate] | 
24 | 2.054 | CC[N+]1=C(/C=C/C2=C(OC)C(=C/C=C3/N(CCCCCC(=O)Oc4ccccc4)c4ccccc4C3(C)C)/CCC2)C(C)(C)c2ccccc21 [Example 104] | 781.5
25 | 2.028 | CCN1/C(=C/C=C2\C[N+](C)(C)CC(/C=C/C3=[N+](CC)c4ccccc4C3(C)C)=C2Sc2ccccc2)C(C)(C)c2ccccc21.Cl [Example 107] | 778.5
